Data taken from patent US8410173B2, “Inhibition of JAK2 as a treatment of pulmonary arterial hypertension” (YM Biosciences Australia Pty Ltd, priority 2006, dated 2013).
“Also recorded” adds a separate entry of the source. Marks after values point to notes of the source that are not given here.

Tests used:
[1] = test system: rat monocrotaline model of pulmonary arterial hypertension; experiment: rat monocrotaline model of pulmonary arterial hypertension, RV pressures; type: in vivo; conditions: for RVEDP Mean / RVS Mean Difference (I − J) vs group 1 (saline control) / RVS Mean Difference (I − J) vs group 2 (monocrotaline, vehicle): day 21
Procedure: To test the efficacy of JAK2 inhibition as a treatment for PAH, the rat monocrotaline model of pulmonary arterial hypertension was used. Animals with pulmonary arterial hypertension induced by monocrotaline were treated for three weeks with the selective JAK2 inhibitor, AG490, or vehicle. AG490 is a tyrphostin based tyrosine kinase inhibitor selective for JAK2.

[2] = test system: plexiform lesions in lungs of monocrotaline treated rats; experiment: histological studies (H&E) of lungs, rat monocrotaline model; type: in vivo; conditions: AG490 1 mg/kg tid, H&E stains of formalin fixed lungs
Procedure: A. Normal lung; B. Lung from monocrotaline treated animal. C. Lung from rat given monocrotaline and AG490 1 mg/kg tid. The arrows point to pulmonary arterioles.
Histological studies of the lungs from group 2 and group 5 were performed to determine the effect of selective JAK2 inhibition on the pulmonary vascular lesions associated with PAH.

[3] = test system: rat monocrotaline model of PAH; conditions: cited from earlier work; for efficacy in the rat monocrotaline model of PAH: sildenafil oral, alone or in combination with beraprost
[4] = group 3, AG490 1 mg/kg/day SID IP
[5] = group 4, AG490 3 mg/kg/day SID IP
[6] = group 5, AG490 1 mg/kg/dose TID IP

## N#C/C(=C\c1ccc(O)c(O)c1)C(=O)NCc1ccccc1 [AG490]
[1]; AG490 1 mg/kg tid, day 21, p=0.023
  reduction of RV systolic pressure vs vehicle treated group: 24%
[1]; AG490 1 mg/kg tid, monocrotaline treated rats, day 21 (group 5), vehicle 38.44±3.1
  RV systolic pressure: 29.23±4.5 mm Hg
[1]; group 3, AG490 1 mg/kg/day
  RV systolic pressure improvement, in words: No improvement
[1]; [4]
  RVEDP Mean Difference (I − J) vs group 1 (saline control): 5.5436
  RVEDP Mean Difference (I − J) vs group 2 (monocrotaline, vehicle): −.0585
  RVEDP Mean: 4.042 mm Hg
  RVS Mean Difference (I − J) vs group 1 (saline control): 11.468*
  RVS Mean Difference (I − J) vs group 2 (monocrotaline, vehicle): −2.487
[1]; [5]
  RVEDP Mean Difference (I − J) vs group 1 (saline control): .6433
  RVEDP Mean Difference (I − J) vs group 2 (monocrotaline, vehicle): −4.9588
  RVEDP Mean: −.858 mm Hg
  RVS Mean Difference (I − J) vs group 1 (saline control): 6.730
  RVS Mean Difference (I − J) vs group 2 (monocrotaline, vehicle): −7.225
[1]; group 5, AG490 1 mg/kg tid, p=0.023, 1 mg/kg
  RV systolic pressure compared to group 2 (vehicle only), in words: significantly reduced; also recorded: significant reduction; also recorded: significantly lower
[1]; group 5, AG490 1 mg/kg tid, p=0.05
  RV End diastolic pressure compared to group 2 (vehicle), in words: significantly lower
[1]; [6]
  RVEDP Mean Difference (I − J) vs group 1 (saline control): −.0193
  RVEDP Mean Difference (I − J) vs group 2 (monocrotaline, vehicle): −5.6214*
  RVEDP Mean: −1.521 mm Hg
  RVS Mean Difference (I − J) vs group 1 (saline control): 4.741
  RVS Mean Difference (I − J) vs group 2 (monocrotaline, vehicle): −9.214*
[2]
  plexiform lesions associated with pulmonary arterial hypertension: prevented the formation of plexiform lesions; also recorded: decreased

## O=C(C(=O)N1CCn2nc(-c3ccc(F)cc3)c(-c3ccncc3)c2N1)c1ccccc1.O=S(=O)(O)O [FR167653]
[3]; rat monocrotaline model
  progression of PAH: decrease the progression of PAH

## COc1ccccc1Oc1c(NS(=O)(=O)c2ccc(C(C)(C)C)cc2)nc(-c2ncccn2)nc1OCCO [bosentan]
[3]; rat monocrotaline model
  pulmonary artery thickening: decrease pulmonary artery thickening
  pulmonary hypertension: reduce pulmonary hypertension

## O=S(=O)(c1cccc2cnccc12)N1CCCNCC1 [fasudil]
[3]; rat monocrotaline model
  progression of PAH: prevented the progression of PAH
  pulmonary arterial hypertension, pulmonary vascular lesions, endothelial cell dysfunction, and RV hypertrophy: decreased
  survival: improved survival

## CC#CCC(C)[C@H](O)/C=C/[C@@H]1[C@H]2C/C(=C/CCCC(=O)O)C[C@H]2C[C@H]1O (stereo partly shown) [iloprost]
[3]
  efficacy in the rat monocrotaline model of PAH: showed efficacy

## Cc1ccc(NC(=O)c2ccc(CN3CCN(C)CC3)cc2)cc1Nc1nccc(-c2cccnc2)n1 [imantinib]
[3]; rat monocrotaline model
  RV systolic pressure: decreased
  survival: improved survival

## CCCc1nn(C)c2c(=O)[nH]c(-c3cc(S(=O)(=O)N4CCN(C)CC4)ccc3OCC)nc12 [sildenafil]
[3]
  efficacy in the rat monocrotaline model of PAH: showed efficacy
